# What was measured:
# Format in all cases: functional
# Pseudomonas aeruginosa [1] = assay: Antibacterial activity against Pseudomonas aeruginosa 1750J expressing beta-lactamase IMP-15 by Etest
# Pseudomonas aeruginosa [2] = assay: Antibacterial activity against Pseudomonas aeruginosa isolates by Etest
# Pseudomonas aeruginosa [3] = assay: Antibacterial activity against Pseudomonas aeruginosa 1750J expressing beta-lactamase IMP-15 by Etest in presence of EDTA
# Pseudomonas aeruginosa [4] = assay: Antibacterial activity against Pseudomonas aeruginosa 1750J expressing beta-lactamase IMP-15 by Etest in presence of beta-lactamase inhibitor Tazobactam
Compound,MIC (Pseudomonas aeruginosa [1]) [µg/mL],MIC (Pseudomonas aeruginosa [2]) [µg/mL],MIC (Pseudomonas aeruginosa [3]) [µg/mL],MIC (Pseudomonas aeruginosa [4]) [µg/mL]
GENTAMICIN,> 256,,,
C[C@@H](O)[C@H]1C(=O)N2C(C(=O)O)=C(S[C@@H]3CN[C@H](C(=O)Nc4cccc(C(=O)O)c4)C3)[C@H](C)[C@H]12 [ERTAPENEM],> 32,,,
NC[C@H]1O[C@H](O[C@H]2[C@H](O)[C@@H](O[C@H]3O[C@H](CO)[C@@H](O)[C@H](N)[C@H]3O)[C@H](N)C[C@@H]2N)[C@H](N)C[C@@H]1O [TOBRAMYCIN],> 256,,,
O=C(O)c1cn(C2CC2)c2cc(N3CCNCC3)c(F)cc2c1=O [CIPROFLOXACIN],> 32,,,
C[C@@H](O)[C@H]1C(=O)N2C(C(=O)O)=C(SCCNC=N)C[C@H]12 [IMIPENEM ANHYDROUS],> 32,≥ 8,,
C[C@@H](O)[C@H]1C(=O)N2C(C(=O)O)=C(S[C@@H]3CN[C@H](C(=O)N(C)C)C3)[C@H](C)[C@H]12 [MEROPENEM],> 32,≥ 8,,
O=C(O)C1=CC[C@@H]2CC(=O)N12 [CARBAPENEM],,> 256,8,
CCN1CCN(C(=O)N[C@@H](C(=O)N[C@@H]2C(=O)N3[C@@H]2SC(C)(C)[C@@H]3C(=O)O)c2ccccc2)C(=O)C1=O [PIPERACILLIN],,,,> 256
CC(C)(O/N=C(\C(=O)N[C@@H]1C(=O)N2C(C(=O)[O-])=C(C[n+]3ccccc3)CS[C@H]12)c1csc(N)n1)C(=O)O [CEFTAZIDIME],> 256,≥ 16,,

# Source: ChEMBL document CHEMBL1275418, “IMP-15-producing Pseudomonas aeruginosa strain isolated in a U.S. medical center: a recent arrival from Mexico” (2008)
